In patent US9260382B2, “Methods of reducing virulence in bacteria” (priority 2010, dated 2016):

What was measured:
rsmB RNA = experiment: Northern blot analysis of rsmB RNA; type: cell-based, D. dadanti 3937; conditions: bacterial cells cultured in media supplemented with compound (FIG. 23)
Excerpt: Northern blot analysis was used to quantify rsmB RNA of D. dadanti 3937.

P. aeruginosa = P. aeruginosa bacterial growth with compound; type: cell-based, P. aeruginosa PA01
Experimental: To identify T3SS inhibitors of PA01, a promoter-probe vector pPROBE-AT containing the promoterless green fluorescent protein (gfp) gene was used to construct an exoS promoter-gfp plasmid reporter, pATexoS. PA01 containing pATexoS was cultured in T3SS-inducing medium containing dimethyl sulfoxide (DMSO; solvent of chemical compounds), or supplemented with 250 μM of each compound, and promoter activity was assessed at 6 h by measuring GFP intensity using flow cytometry. 101 compounds (58 synthesized and 43 commercially available) were screened. Compounds 027, 032, 101, and 149 repressed exoS expression at the final concentration of 250 μM by at least one standard deviation below the sample average (Z score≦−1) (FIG. 37 A-E). Z score (or standard score) indicates how many standard deviations an observation or datum is above or below the mean [z=(x−μ)/σ, where x is a raw score to be standardized, μ is the mean of the population, and σ is the standard deviation of the population].
To determine the effective concentration of compounds, the dose-dependent effect of potential inhibitors on exoS expression and bacterial growth were tested. P. aeruginosa cells carrying pATexoS were pre-cultured in LB supplemented with 200 mM NaCl and transferred to fresh LB with 200 mM NaCl, 10 mM NTA, and various concentrations of compounds (20, 50, 100, and 250 μM) or DMSO for 6 h. […] At 50 μM dosage, both 027 and 101 inhibited exoS expression at similar levels, and this inhibitory effect increased as compound concentration increased (FIG. 38A and Table 17). […] These inhibitions/inductions of exoS expression are caused by the shifting bacterial population between low-state expression cells and high-state expression cells (FIG. 40).

hrpY mRNA = experiment: qRT-PCR relative mRNA level of hrpY; type: cell-based, Dickeya dadantii 3937; conditions: 0.1 mM in MM
Experimental: (§1) Bacterial strains were grown in MM. Total RNA from the bacterial cells was isolated by using the TRI reagent method (Sigma, Mo.) and treated with Turbo DNA-free DNase kits (Ambion, Tex.) as described (Peng et al., 2006). An iScript cDNA Synthesis Kit (Bio-Rad, CA) was used to synthesize cDNA from 0.5 μg of treated total RNA. The Real Master Mix (Eppendorf, Westbury, N.Y.) was used for qRT-PCR reaction to quantify the cDNA level of target genes in different samples. The rplU was used as the endogenous control for data analysis. qRT-PCR data were analyzed using Relative Expression Software Tool as described (Pfaffl, M. W., Horgan, G. W., and Dempfle, L. (2002) Relative expression software tool (REST) for group-wise comparison and statistical analysis of relative expression results in real-time PCR. Nucleic Acids Res 30:e36.).

gacA mRNA = experiment: qRT-PCR relative mRNA level of gacA; type: cell-based, Dickeya dadantii 3937; conditions: 0.1 mM in MM
Experimental: as §1

[1] = tested on: Pseudomonas syringae pv. tomato DC3000; experiment: DC3000 bacterial growth, colony counts; type: cell-based; conditions: 6 h and 9 h
Experimental: (§2) To determine the maximum concentration of TCA that will inhibit hrpA promoter activity without affecting bacterial growth, DC3000 carrying phrpA was cultured in HIM and HIM supplemented with 25 μM, 50 μM, 100 μM, 250 μM, or 500 μM of TCA. Promoter activity was measured at 6 h and 9 h as mentioned above using flow cytometry. Bacterial growth was determined by withdrawing samples of each culture and spot-plating serial dilutions onto King's B agar (King et al. 1954) in tandem with promoter activity assays. Colonies were counted after 48 h of incubation at 28° C.

hrpA promoter (T3SS) = experiment: hrpA promoter activity assay in DC3000 (GFP, flow cytometry); type: cell-based, Pseudomonas syringae pv. tomato DC3000; conditions: DC3000 (phrpA)
Experimental: Expression of hrpA was analyzed using a FACS Calibur flow cytometer as previously described (BD Biosciences, CA) (Peng et al. 2006). Wild-type DC3000 carrying the promoter-probe phrpA or pPROBE-NT (vector control) was grown in KB broth overnight and transferred to HIM or HIM supplemented with different compounds as described (Li et al. 2009). The promoter activity of hrpA in DC3000 was monitored by measuring GFP intensity using flow cytometry.
as §2

hrpW mRNA = experiment: Real-time PCR of hrpW in DC3000; type: cell-based, Pseudomonas syringae pv. tomato DC3000; conditions: HIM supplemented with 250 μM, 9 h
Experimental: DC3000 was cultured in KB medium overnight at 28° C. and subcultured in HIM medium supplemented with DMSO or with 250 μM TCA for 9 h. Total bacterial RNA was isolated using RNeasy Mini Kit (QIAGEN, Valencia, Calif.) and treated with Turbo DNA-free DNase kit (Ambion, Austin, Tex.). cDNA was synthesized using iScript cDNA Synthesis Kit (Bio-Rad, Hercules, Calif.) from 0.8 μg of total RNA. The Real Master Mix SYBR ROX (5 PRIME, Gaithersburg, Md.) was used for real-time PCR reactions to quantify the cDNA level of target genes in different samples. Data were collected by the Opticon 2 system (Bio-Rad) and analyzed using Relative Expression Software Tool as described by Pfaffl and associates (Pfaffl et al. 2002). Two housekeeping genes, gyrA (PSPTO1745) and gap1 (PSPTO1287) were used as endogenous controls for data analysis. The PCR efficiencies of the primers are: gyrA, 1.93; gap1, 2.08; and hrpW, 1.93.

hrpN mRNA = experiment: qRT-PCR relative mRNA level of hrpN; type: cell-based, Dickeya dadantii 3937; conditions: 0.1 mM in MM
Experimental: as §1

HrpN protein = HrpN protein expression (FIG. 15); type: cell-based, Dickeya dadantii 3937; conditions: MM supplemented with 0.1 mM (FIG. 15)
Excerpt: To further elucidate whether T3SS gene expression is mainly regulated through the HrpX/Y-HrpS-HrpL regulatory pathway, the expression of hrpA and hrpN in wild-type Ech3937 and hrpX (WPP67), hrpY (WPP92), hrpS (WPP90), and hrpL (WPP96) mutants in MM were examined. […] Similar expression of hrpA and hrpN was observed among WPP67, WPP92, WPP90 and WPP96 carrying phrpA and phrpN grown in MM and MM supplemented with PCA. […] Since PCA represses the expression of several T3SS genes such as hrpN, the effect of PCA on protein production of HrpN was further examined.

hrpL mRNA = experiment: qRT-PCR relative mRNA level of hrpL; type: cell-based, Dickeya dadantii 3937; conditions: MM supplemented with 0.1 mM
Experimental: as §1

O=C(/C=C/c1ccc(O)cc1)NO [Compound 103, trans-4-Hydroxycinnamohydroxamic acid]
rsmB RNA level, Northern blot, in words (rsmB RNA): reduced rsmB mRNA
effect on bacterial growth, in words (P. aeruginosa; P. aeruginosa, 250 μM): some inhibition on bacterial growth
dose-dependent effect on P. aeruginosa growth, in words (P. aeruginosa; various concentrations (up to 250 μM for 101, up to 500 μM for 027), FIG. 39): inverse relationship was observed between the compound concentration and bacterial growth

O=C(O)/C=C/c1ccccc1O [Compound 006, Ortho-coumaric acid]
hrpY mRNA compared with MM alone, in words (hrpY mRNA): No significant difference
gacA mRNA compared with MM alone, in words (gacA mRNA): No significant difference

O=C(O)/C=C/c1ccccc1 [Compound 001, trans-cinnamic acid]
colony counts of DC3000 vs control culture, in words ([1]; HIM + 500 μM): slightly lower
effect on growth of DC3000, in words ([1]; HIM, at or below concentrations of 250 μM): does not significantly inhibit nor enhance growth
effect on hrpA promoter activity, in words (hrpA promoter (T3SS); HIM + 25 μM or 50 μM): less substantial effect
reduction in hrpA promoter activity (hrpA promoter (T3SS); HIM + 100 μM): 3 fold
effect on hrpA promoter activity, in words (hrpA promoter (T3SS); HIM + 250 μM and 500 μM): almost complete repression of hrpA promoter activity
hrpW mRNA relative expression ratio vs HIM alone (hrpW mRNA): 0.07

O=C(O)/C=C/c1ccc(O)cc1 [Compound 004, para-coumaric acid]
hrpN mRNA compared with MM alone, in words (hrpN mRNA): significantly lower amount of mRNA
HrpN protein amount compared with MM alone, in words (HrpN protein): a lower amount of HrpN
hrpL mRNA relative expression ratio (MM alone normalized to 1) (hrpL mRNA): 0.039
